Measured values as given in patent US20230406821A1, “STRIGOLACTONE DERIVATIVES” (Plant Response, Inc., priority 2017, published 2023).

What was measured:
[1] = test system: A. thaliana Columbia (Col-0); experiment: Root hair elongation on phosphate limiting media; type: in vivo, Arabidopsis thaliana; details: in DMSO (0.1%), images after seven days, vs DMSO (FIG. 3)
Source text: FIG. 3 is a boxplot representing the maximum root hair length in the root apical zone of A. thaliana treated with the control solvent DMSO, strigolactone molecule MBS-127 in DMSO, and strigolactone molecule MBS-128 in DMSO. Stars indicate significant differences relative to the DMSO control (*: adjusted p-value <0.01; p-values adjusted for multiple-hypothesis testing); non-parametric Mann-Whitney U-tests were used to assess significance. Representative images show root hairs in the root apical zone of plants treated with the control solvent DMSO, the strigolactone molecule MBS-127 in DMSO, and the strigolactone molecule MBS-128 in DMSO. Scale bars equal 1 mm. […]
In this experiment sterilized seeds of the A. thaliana Columbia (Col-0) ecotype were planted on growth media (Murashige and Skoog (MS) M404 with vitamins (2.2 g/L), 0.5% sucrose, 0.05% IVIES hydrate, 0.6% PhytoBlend™) and grown for nine days. […] The longest root hair, within the root apical zone, was measured from the images using ImageJ. […]

BRANCHED1 (BRC1) gene = experiment: BRC1 gene expression by RT-PCR in sprayed seedlings; type: in vivo, Arabidopsis thaliana; details: Col-0 seedlings, foliar spray, 0.4% DMSO, shoots harvested 24 hours later; similarly to GR24 (FIG. 2)
Source text: FIG. 2 is a boxplot representing Ct value distributions of BRC1 relative to constitutive control Ct values plotted as ΔCt. Due to the non-normal distribution of the BRC1 data, non-parametric Mann-Whitney U-tests were used to assess statistical significance. Stars indicate significant differences relative to the DMSO control (**: adjustedp-value <0.001; *: adjusted p-value <0.01; p-values adjusted for multiple-hypothesis testing with the Bonferroni correction). […]
Another experiment was performed to consider an aspect of molecular signal transduction. A number of genes in Arabidopsis thaliana are well known downstream signaling targets of the native strigolactone pathway. […]
In this experiment sterilized and stratified seeds of the A. thaliana Columbia (Col-0) were planted on growth media (Murashige and Skoog (MS) M404 with vitamins (2.2 g/L), 0.5% sucrose, 0.05% IVIES hydrate, 0.6% PhytoBlend™) for eight days in a growth chamber under 16 hours of light per day at 22° C. and 19° C. nights. […] Total RNA was extracted and RT-PCR quantification was performed using kits from Macherey-Nagel and Bioline and an ABI 7900HT instrument. […]

Z. mays = experiment: Root hair elongation in maize under insufficient phosphate; type: in vivo, Zea mays; details: various nutrient levels, shown under insufficient phosphate conditions, vs DMSO (FIG. 4)
Source text: FIG. 4 is a boxplot graph representing the distribution of maximum root hair length in the root apical zone of Z. mays with the control solvent DMSO, strigolactone molecule MBS-127 in DMSO, and strigolactone molecule MBS-128 in DMSO. Stars indicate significant differences relative to the DMSO control (*: adjustedp-value <0.1; p-values were adjusted for multiple-hypothesis testing using a Bonferroni correction). Representative images show root hairs in the root apical zone of plants treated with the control solvent DMSO, strigolactone molecule MBS-127 in DMSO, and strigolactone molecule MBS-128 in DMSO. Scale bars equal 10 mm.

## COC(=O)/C=C/OC1C=C(C)C(=O)O1 (stereo not drawn) [MBS-127, 3-(4-Methyl-5-oxo-2,5-dihydro-furan-2-yloxy)-acrylic acid methyl ester]
[1]
  root hair elongation and proliferation (maximum root hair length in the root apical zone): enhance root hair elongation and proliferation
BRANCHED1 (BRC1) gene
  expression of the BRC1 gene (ΔCt): induced expression of the BRC1 gene
Z. mays
  root hair elongation (maximum root hair length in the root apical zone): induce root hair elongation

## COC(=O)/C=C/OC1(C)C=C(C)C(=O)O1 (stereo not drawn) [MBS-128, methyl (E)-3-((2,4-dimethyl-5-oxo-2,5-dihydrofuran-2-yl)oxy)acrylate]
[1]
  root hair elongation and proliferation (maximum root hair length in the root apical zone): enhance root hair elongation and proliferation
BRANCHED1 (BRC1) gene
  expression of the BRC1 gene (ΔCt): induced expression of the BRC1 gene
Z. mays
  root hair elongation (maximum root hair length in the root apical zone): induce root hair elongation
